# Assay results as given in patent US12280051B2, “Pharmaceutical composition for topical wound treatment” (CONSEJO NACIONAL DE INVESTIGACIONES CIENTIFICAS Y TECNICAS, priority 2021, dated 2025).
# B1: DNAse: rh-Dornase alfa (recombinant human DNase, Roche) diluted in mixing solvent; C2 0.97 μg/mL, C4 3.90 μg/mL (protein, UniProt P24855 23-282, looked up)
# Deoxyribonuclease-1: LKIAAFNIQTFGETKMSNATLVSYIVQILSRYDIALVQEVRDSHLTAVGKLLDNLNQDAPDTYHYVVSEPLGRNSYKERYLFVYRPDQVSAVDSYYYDDGCEPCGNDTFNREPAIVRFFSRFTEVREFAIVPLHAAPGDAVAEIDALYDVYLDVQEKWGLEDVMLMGDFNAGCSYVRPSQWSSIRLWTSPTFQWLIPDSADTTATPTHCAYDRIVVAGMLLRGAVVPDSALPFNFQAAYGLSDQLAQAISDHYPVEVMLK
# How the values were obtained:
# [1] = system: Staphylococcus aureus MTCC 96; settings: cited from earlier work
# [2] = system: Pseudomonas aeruginosa. MTCC741; settings: cited from earlier work
# VEGF [3] = test: VEGF expression in macrophages J774 (real-time PCR); type: cell-based, Murine; settings: Macrophages J774 + LPS 25 ng/mL; Ethosuximide 0.5 mg/mL; 24 hours; FIG. 19
# Method: (§1) Cell lines were grown and maintained following the protocols of the American Type Culture Collection (ATCC, Rockville, MD, USA), using Minimum Essential Medium (MEM), Fetal Bovine Serum (FBS), L-glutamine.
# (§2) To evaluate the expression of the VEGF genes, the following cell lines were used: • a. Murine macrophage cell line J774 (ATCC), stimulated with 25 ng/mL of lipopolysaccharides (LPS) from E. coli (L-8274, Sigma). • b. Adult human skin keratinocytes cell line HaCaT(ATCC).
# (§3) Cells were plated for 24 hours with Ethosuximide at different concentrations to evaluate their effect on gene expression.
# (§4) Monolayers of the J774 Macrophage cell lines and HaCaT Keratinocytes were used, until confluent cells were obtained, which were stimulated with Ethosuximide at 0.5 and 3.0 mg/mL as indicated in example 1, in 12-well plates, at a final volume of 300 μL/well. For the J774 macrophage line, all treatments were supplemented with LPS (25 ng/mL), using MEM 1× with LPS (25 ng/mL) as control (Control+LPS). HaCaT keratinocytes were treated with the concentrations of ethosuximide in MEM with 10% FBS, using 1× MEM as a control. […]
# (§5) Levels of VEGF and GAPDH mRNA were measured in triplicate for each sample using the StepOnePlus Real-Time PCR Systems (Applied Biosystems) and the Power Up SYBR Green Master Mix (ROCHE) kit. […] Group means were determined and normalized to the MEM group for each experiment.
# VEGF [4] = test: VEGF expression in keratinocytes HaCaT (real-time PCR); type: cell-based, human; settings: Ethosuximide 3.0 mg/mL, 24 hours, FIG. 19
# Method: as §1, §2, §3, §4, §5
# [5] = system: chicken chorioallantoic membrane; test: Chicken Chorioallantoic Membrane Assay (CAM), angiogenesis; type: in vivo; settings: 300 μl onto the chorioallantoic membrane; 24 and 48 hours; ethosuximide solutions 0.5 and 3.0 mg/mL; FIG. 18
# Excerpt: Angiogenesis is a complex biological process involving the generation of new blood vessels from the pre-existing vasculature. The process involves the cooperation of several different cell types, and in particular involves proliferation, survival, and tissue invasion by activated endothelial cells. Most investigations of angiogenesis include at least one in vivo study. The Chicken Chorioallantoic Membrane Assay (CAM) is suitable for a variety of applications. In this assay, the angiogenic properties of different concentrations of ethosuximide and lactic acid and the mixtures were tested.
# Eggs commercial lines with a weight between 30-90 g were used. By using an ovoscope the viability of the chorioallantoic membrane was determined to select only fertilized and viable eggs. […]
# Then, 300 μl of the following solutions were slowly placed onto the chorioallantoic membrane: Ethosuximide 3.0 mg/mL; Ethosuximide 0.5 mg/mL; M0; M13; M15; LAPS; Negative control (PBS). Each solution was evaluated by triplicade. […]
# Angiogenesis tests: Digital images analysis was made by using the software Image J plus. The length of vascularization (cm) per CAM area (cm^2) was evaluated before solution addition (basal) and after 24 and 48 hours. Then, the percentage of increase of vascularization was calculated.
# [6] = system: Intercellular adhesion molecule-1 (ICAM-1); settings: cited from earlier work
# [7] = Chelating capacity: remaining Calcium (unchelated); type: physicochemical; settings: pH 7.0
# Method: The following solutions were prepared in Mixing solvent (MS) at pH 7.0. All solutions were supplemented with ZnCl2 (1 ppm), CaCl2 (100 ppm) and MgCl2 (25 ppm). The concentrations of Zn, Ca and Mg used here, were close to those typically found in exudates from chronic wounds. The pH chosen for the reaction (7.0) would result from the combination of compositions of present invention (pH 5.5) and the exudate from a chronic wound (pH 8.5). Prepared solutions were: EDTA (0.25, 0.50 and 0.75 mg/mL) as indicated in example 1; M0, M13, […] were elaborated according to examples 18 to 21. and LAPS deproteinized: Over a LAPS 24 h sample obtained according to example 1, a deproteinization process was performed using reagents and indications of the commercial kit employed. Measurement of remaining Calcium (unchelated) in the prepared solutions: A commercial Calcium measurement kit (Wiener Lab) was used. This is a colorimetric method based on the reaction of calcium with o-cresolphthalein complexone (o-CPC) at alkaline pH, giving a photocolorimetrically measurable magenta complex at 570 nm.
# [8] = Chelating capacity: remaining Zinc (unchelated); type: physicochemical; settings: pH 7.0; EDTA at all concentrations tested; combination of Zinc, Calcium and Magnesium
# Method: The following solutions were prepared in Mixing solvent (MS) at pH 7.0. All solutions were supplemented with ZnCl2 (1 ppm), CaCl2 (100 ppm) and MgCl2 (25 ppm). The concentrations of Zn, Ca and Mg used here, were close to those typically found in exudates from chronic wounds. The pH chosen for the reaction (7.0) would result from the combination of compositions of present invention (pH 5.5) and the exudate from a chronic wound (pH 8.5). Prepared solutions were: EDTA (0.25, 0.50 and 0.75 mg/mL) as indicated in example 1; M0, M13, […] were elaborated according to examples 18 to 21. and LAPS deproteinized: Over a LAPS 24 h sample obtained according to example 1, a deproteinization process was performed using reagents and indications of the commercial kit employed. Measurement of remaining Zinc (unchelated) in the prepared solutions: A commercial Zinc measurement kit (Randox Lab) was used. This is a colorimetric method based on the reaction of Zinc with Dimethylglyoxime and Salicylaldoxin at alkaline pH, giving a colored complex photocolorimetrically measurable at 560 nm. For the determination of Zinc in LAPS, a previous deproteinization step was necessary. Therefore, equal parts of LAPS and deproteinizing reagent (Trichloroacetic Acid 370 mmol/L) were mixed in conical tubes, homogenized and centrifuged for 10 min at 10,000×g. The supernatant was used for the test.
# highly polymerized DNA = test: DNAse activity halos in DNAse agar and conservation in time; type: biochemical; settings: DNAse 0.97 μg/mL alone (C2); DNAse agar, 24 hours at 32° C.
# Excerpt: DNAse agar is a culture medium that contains highly polymerized DNA and agar as solidifying agents. The DNA is the substratum of the deoxyribonuclease enzyme (DNAse) which hydrolyzes it. This medium allows to detect DNAse activity in different samples and microorganisms. The presence of the enzyme could be visualized adding hydrochloric acid 1N. The hydrolyzed deoxyribonucleic acid presents transparency while the polymerized deoxyribonucleic acid precipitates generating resulting in a opacity on the culture media
# Plates preparation: DNAse agar plates were prepared according to manufacturer recommendations (Britania, CABA, Argentina). A volume of 20 mL of the molten media was employed reaching an agar height of 2 mm in the plates. Wells of 5 mm o diameter were made over the agar using a sterile punch. Therefore, the sown volume in each well was π×r^2×h=π×(2.5 mm)^2×2 mm=40 mm=40 μL. […]
# Analyzed samples: LAPS, M0, M13, M15, M16 (All gelled with hydroxyethyl cellulose) stored at 25° C. and 4° C. DNAse activity was measured once a week for 6 months. […]
# Then, the plates were rested and were observed up to no more than 5 minutes after adding the HCl. DNase activity was measured analyzing the transparent evanescence around the planting zone recording in millimeters the halos diameter.
molecule,measurement,setting,value
"XYLENTRA®: synthetically engineered antimicrobial peptide of U.S. Pat. No. 10,285,938 B2",antibacterial activity,[1],significant antibacterial activity
same,antibacterial activity,[2],significant antibacterial activity
"CCC1(C)CC(=O)NC1=O (stereo not shown) [Ethosuximide, ethosuximide]",VEGF expression level normalized to GAPDH,VEGF [3],induced
same,VEGF expression level normalized to GAPDH,VEGF [4],induced
same,percentage of increase of vascularization (angiogenic effect),[5],showed angiogenic properties although it was better at 0.5 mg/mL than 3.0 mg/mL
"CC(=O)N[C@@H](CS)C(=O)O [NAC, N-acetyl cysteine]",ICAM-1 expression,[6],concentration dependent inhibition
"O=C(O)CN(CCN(CC(=O)O)CC(=O)O)CC(=O)O [EDTA, ethylenediaminetetraacetic acid]",Calcium chelation percentage,[7]; EDTA 0.25 mg/mL,not able to chelate all the available calcium
same,Calcium chelation percentage,"[7]; EDTA at 0.50, 0.75 and 1.00 mg/mL, combination of zinc, calcium and magnesium",completely
same,Zinc chelation percentage,[8],completely chelate
B1,halos of DNAse activity,highly polymerized DNA,8-10 mm
